Reference: patent US10047051B2, “Substituted pyridines and method of use” (AbbVie S.á{acute over (.)}r.l., priority 2015, dated 2018)

How the values were obtained:
CFTR ΔF508 mutant = biological target: T1, CFTR ΔF508 mutant (Homo sapiens, UniProt P13569, DEL508-508); experiment: YFP-halide influx assay for the CFTR-ΔF508 mutation (CFBE41o- cells); format: cell-based; conditions: forskolin 10.67 μM; for EC50: from (1−F/F0) vs concentration plot
T1 construct: expressed in transfected cells; host or cells: CFBE41o- cells, adenoviral transduction
How it was run: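 EC50 derived from plotting 1−F/F0 (fluorescence 36 s after iodide injection over pre-injection value) against compound concentration. Cells: CFBE41o- transduced with ΔF508-CFTR and YFP quench reporter, corrected 24 h at 27° C or by a CFTR modulator at 37° C.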

CFTR G551D mutant = biological target: T2, CFTR G551D mutant (Homo sapiens, UniProt P13569, G551D); experiment: YFP-halide influx assay for the CFTR-G551D mutation (HEK293 cells); format: cell-based; conditions: forskolin 10.67 μM
T2 construct: expressed in transfected cells; host or cells: HEK293 cells, reverse transfection with plasmids
How it was run: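 Channel opening read as I⁻-driven quenching of a YFP H148Q/I152L/F47L reporter over 7 s post-injection, expressed as 1−F/F0 and fitted against concentration for EC50. Cells were HEK293 co-transfected at seeding with G551D CFTR plus reporter, then grown 24 h at 37 °C, 5% CO2.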

T2 sequence (P13569 whole entry G551D): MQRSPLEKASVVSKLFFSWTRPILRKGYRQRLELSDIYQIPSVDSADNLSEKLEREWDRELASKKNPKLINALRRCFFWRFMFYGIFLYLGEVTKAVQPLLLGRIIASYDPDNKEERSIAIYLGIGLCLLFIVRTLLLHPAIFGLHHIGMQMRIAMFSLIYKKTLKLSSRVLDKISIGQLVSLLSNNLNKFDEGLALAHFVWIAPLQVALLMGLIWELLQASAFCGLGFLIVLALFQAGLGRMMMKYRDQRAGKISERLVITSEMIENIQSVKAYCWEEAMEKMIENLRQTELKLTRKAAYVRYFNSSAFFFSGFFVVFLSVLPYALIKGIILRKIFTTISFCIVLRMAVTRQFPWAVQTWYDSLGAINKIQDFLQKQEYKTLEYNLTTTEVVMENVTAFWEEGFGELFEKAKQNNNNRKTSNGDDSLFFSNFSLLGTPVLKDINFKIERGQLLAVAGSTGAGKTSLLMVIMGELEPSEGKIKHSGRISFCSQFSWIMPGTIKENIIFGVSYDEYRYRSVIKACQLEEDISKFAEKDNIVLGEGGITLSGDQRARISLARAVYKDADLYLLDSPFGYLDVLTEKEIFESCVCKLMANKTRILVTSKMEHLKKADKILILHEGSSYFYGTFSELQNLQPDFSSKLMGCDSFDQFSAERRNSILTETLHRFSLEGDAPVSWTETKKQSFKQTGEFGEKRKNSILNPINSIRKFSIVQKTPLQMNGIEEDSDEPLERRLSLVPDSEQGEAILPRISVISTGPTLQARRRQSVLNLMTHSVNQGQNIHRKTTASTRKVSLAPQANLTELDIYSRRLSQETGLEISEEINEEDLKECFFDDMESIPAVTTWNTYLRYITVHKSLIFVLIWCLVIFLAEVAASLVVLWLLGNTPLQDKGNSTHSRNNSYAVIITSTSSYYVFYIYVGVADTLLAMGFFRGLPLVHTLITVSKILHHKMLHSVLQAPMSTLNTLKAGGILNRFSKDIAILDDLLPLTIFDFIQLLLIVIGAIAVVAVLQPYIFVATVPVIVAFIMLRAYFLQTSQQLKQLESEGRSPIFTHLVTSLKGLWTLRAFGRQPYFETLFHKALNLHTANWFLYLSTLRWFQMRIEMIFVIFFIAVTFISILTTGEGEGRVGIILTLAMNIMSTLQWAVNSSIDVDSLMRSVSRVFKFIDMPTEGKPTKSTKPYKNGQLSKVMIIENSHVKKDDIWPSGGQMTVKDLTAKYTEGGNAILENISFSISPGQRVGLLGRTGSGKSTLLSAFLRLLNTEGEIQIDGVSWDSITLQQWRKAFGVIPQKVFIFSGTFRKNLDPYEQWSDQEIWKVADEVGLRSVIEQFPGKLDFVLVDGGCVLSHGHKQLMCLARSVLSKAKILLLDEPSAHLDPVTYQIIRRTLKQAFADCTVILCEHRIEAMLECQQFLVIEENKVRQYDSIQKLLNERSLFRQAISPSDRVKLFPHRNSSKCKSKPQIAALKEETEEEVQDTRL
T1 sequence (P13569 with tags, fused parts or gaps DEL508-508): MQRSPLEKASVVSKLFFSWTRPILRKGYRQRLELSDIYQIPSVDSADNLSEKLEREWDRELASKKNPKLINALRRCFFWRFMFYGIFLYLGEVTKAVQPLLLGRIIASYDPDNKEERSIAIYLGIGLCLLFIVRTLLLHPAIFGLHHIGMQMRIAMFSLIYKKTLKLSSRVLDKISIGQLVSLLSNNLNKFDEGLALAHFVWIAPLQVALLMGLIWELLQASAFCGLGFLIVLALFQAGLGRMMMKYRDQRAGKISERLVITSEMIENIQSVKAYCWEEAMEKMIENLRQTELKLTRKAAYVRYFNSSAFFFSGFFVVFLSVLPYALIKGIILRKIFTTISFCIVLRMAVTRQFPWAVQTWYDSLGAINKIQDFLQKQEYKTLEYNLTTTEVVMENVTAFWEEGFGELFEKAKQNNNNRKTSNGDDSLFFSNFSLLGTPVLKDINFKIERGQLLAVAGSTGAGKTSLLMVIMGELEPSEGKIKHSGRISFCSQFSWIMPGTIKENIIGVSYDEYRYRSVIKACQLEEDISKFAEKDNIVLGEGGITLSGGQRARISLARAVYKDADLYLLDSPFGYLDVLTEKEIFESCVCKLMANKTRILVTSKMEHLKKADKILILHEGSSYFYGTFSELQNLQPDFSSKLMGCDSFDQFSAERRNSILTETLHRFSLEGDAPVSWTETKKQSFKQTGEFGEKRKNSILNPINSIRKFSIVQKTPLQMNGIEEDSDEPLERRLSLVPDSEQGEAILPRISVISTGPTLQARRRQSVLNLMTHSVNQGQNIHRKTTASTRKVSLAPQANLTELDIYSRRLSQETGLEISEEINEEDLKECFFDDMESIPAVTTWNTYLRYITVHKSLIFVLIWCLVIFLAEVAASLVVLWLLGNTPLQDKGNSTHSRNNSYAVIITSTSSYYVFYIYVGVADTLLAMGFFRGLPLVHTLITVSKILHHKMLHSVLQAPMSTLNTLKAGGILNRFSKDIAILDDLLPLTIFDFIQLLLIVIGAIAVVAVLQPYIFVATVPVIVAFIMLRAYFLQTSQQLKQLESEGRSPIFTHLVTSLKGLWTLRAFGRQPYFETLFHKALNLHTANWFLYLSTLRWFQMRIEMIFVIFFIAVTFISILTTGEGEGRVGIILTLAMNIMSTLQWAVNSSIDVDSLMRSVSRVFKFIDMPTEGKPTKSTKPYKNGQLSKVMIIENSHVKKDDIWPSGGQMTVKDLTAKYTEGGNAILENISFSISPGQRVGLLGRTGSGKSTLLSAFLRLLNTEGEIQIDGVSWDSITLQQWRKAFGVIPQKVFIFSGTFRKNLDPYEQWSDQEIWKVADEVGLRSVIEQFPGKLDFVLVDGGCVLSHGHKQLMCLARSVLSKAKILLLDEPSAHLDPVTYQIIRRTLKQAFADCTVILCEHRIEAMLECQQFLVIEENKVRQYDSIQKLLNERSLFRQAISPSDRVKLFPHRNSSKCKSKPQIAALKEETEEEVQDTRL

Row | % Activation (CFTR ΔF508 mutant) | EC50 (CFTR ΔF508 mutant) | % Activation (CFTR G551D mutant) | EC50 (CFTR G551D mutant) | Structure (SMILES)
1 | 101.8% | 2.7 nM | 68.0% | 255 nM | CC(C)C1(O)CN(C(=O)c2ncc(S(=O)(=O)c3ccc(C(F)(F)F)cc3F)cc2N)C1 [Compound 162, (3-amino-5-{[2-fluoro-4-(trifluoromethyl)phenyl]sulfonyl}pyridin-2-yl)[3-hydroxy-3-(propan-2-yl)azetidin-1-yl]methanone]
2 | 91.8% | 140 nM | 49.3% | 1390 nM | CN(C)C(=O)C1CN(C(=O)c2ncc(S(=O)(=O)c3ccc(OC(F)(F)F)cc3)cc2N)C1 [Compound 62, 1-[(3-amino-5-{[4-(trifluoromethoxy)phenyl]sulfonyl}pyridin-2-yl)carbonyl]-N,N-dimethylazetidine-3-carboxamide]
3 | 112.0% | 4.3 nM | 54.3% | > 3330 nM | Nc1cc(S(=O)(=O)c2ccccc2OC(F)(F)F)cnc1C(=O)N1CC(O)C1 [Compound 76, (3-amino-5-{[2-(trifluoromethoxy)phenyl]sulfonyl}pyridin-2-yl)(3-hydroxyazetidin-1-yl)methanone]
4 | 107.4% | 0.66 nM | 45.6% | > 3330 nM | Nc1cc(S(=O)(=O)c2cccc(F)c2)cnc1C(=O)N1CC(O)(C(F)(F)F)C1 [Compound 256, {3-amino-5-[(3-fluorophenyl)sulfonyl]pyridin-2-yl}[3-hydroxy-3-(trifluoromethyl)azetidin-1-yl]methanone]
5 | 93.8% | 36.2 nM | 39.3% | > 10000 nM | Nc1cc(S(=O)(=O)c2ccc(C(F)(F)F)cc2)cnc1C(=O)NCC(F)(F)F [Compound 209, 3-amino-N-(2,2,2-trifluoroethyl)-5-{[4-(trifluoromethyl)phenyl]sulfonyl}pyridine-2-carboxamide]
6 | 119.0% | 28.2 nM | 73.6% | 1360 nM | Nc1cc(S(=O)(=O)c2ccc(C(F)(F)F)cc2)cnc1C(=O)NC[C@@H]1CCOC1 [Compound 102, 3-amino-N-[(3S)-tetrahydrofuran-3-ylmethyl]-5-{[4-(trifluoromethyl)phenyl]sulfonyl}pyridine-2-carboxamide]
7 | 114.3% | 31.6 nM | 29.2% | > 10000 nM | Nc1cc(S(=O)(=O)c2ccc(C(F)(F)F)cc2)cnc1C(=O)N1CC(OC(F)F)C1 [Compound 158, (3-amino-5-{[4-(trifluoromethyl)phenyl]sulfonyl}pyridin-2-yl)[3-(difluoromethoxy)azetidin-1-yl]methanone]
8 | 109.7% | 5.6 nM | 75.8% | 322 nM | CC(C)(O)C1CN(C(=O)c2ncc(S(=O)(=O)c3ccc(C(F)(F)F)cc3F)cc2N)C1 [Compound 178, (3-amino-5-{[2-fluoro-4-(trifluoromethyl)phenyl]sulfonyl}pyridin-2-yl)[3-(2-hydroxypropan-2-yl)azetidin-1-yl]methanone]
9 | 114.0% | 5.6 nM | 80.8% | 395 nM | Cc1ccc(S(=O)(=O)c2cnc(C(=O)NCC(O)C(F)(F)F)c(N)c2)cc1 (stereo not drawn) [Compound 245, 3-amino-5-[(4-methylphenyl)sulfonyl]-N-(3,3,3-trifluoro-2-hydroxypropyl)pyridine-2-carboxamide]
10 | 115.3% | 6 nM | 71.0% | 414 nM | Nc1cc(S(=O)(=O)c2ccc(C(F)(F)F)cc2F)cnc1C(=O)NCC(O)COCC(F)(F)F (stereo not drawn) [Compound 213, 3-amino-5-{[2-fluoro-4-(trifluoromethyl)phenyl]sulfonyl}-N-[2-hydroxy-3-(2,2,2-trifluoroethoxy)propyl]pyridine-2-carboxamide]
11 | 98.8% | 15.3 nM | 41.0% | > 3330 nM | Nc1cc(S(=O)(=O)c2ccc(OC(F)(F)F)cc2F)cnc1C(=O)N1CC(O)C1 [Compound 77, (3-amino-5-{[2-fluoro-4-(trifluoromethoxy)phenyl]sulfonyl}pyridin-2-yl) (3-hydroxyazetidin-1-yl)methanone]

Second part, the molecule before the results:

Row | Structure (SMILES) | % Activation (CFTR ΔF508 mutant) | EC50 (CFTR ΔF508 mutant) | % Activation (CFTR G551D mutant) | EC50 (CFTR G551D mutant)
12 | Nc1cc(S(=O)(=O)c2ccc(OC(F)(F)F)cc2)cnc1C(=O)NCCN1CCOCC1 [Compound 9, 3-amino-N-[2-(morpholin-4-yl)ethyl]-5-{[4-(trifluoromethoxy)phenyl]sulfonyl}pyridine-2-carboxamide] | 97.5% | 161 nM | 59.5% | > 3330 nM
13 | COCCOc1nc(C(=O)NC[C@H](C)O)c(N)cc1S(=O)(=O)c1ccc(OC(F)(F)F)cc1 [Compound 288, 3-amino-N-[(2S)-2-hydroxypropyl]-6-(2-methoxyethoxy)-5-{[4-(trifluoromethoxy)phenyl]sulfonyl}pyridine-2-carboxamide] | 109.0% | 8.7 nM | 78.3% | > 3330 nM
14 | CC1(C)CN(S(=O)(=O)c2cnc(C(=O)NCC(O)C(F)(F)F)c(N)c2)C1 (stereo not drawn) [Compound 199, 3-amino-5-[(3,3-dimethylazetidin-1-yl)sulfonyl]-N-(3,3,3-trifluoro-2-hydroxypropyl)pyridine-2-carboxamide] | 114.1% | 21.6 nM | 65.0% | 1430 nM
15 | CN1CC[C@H](NC(=O)c2ncc(S(=O)(=O)c3ccc(OC(F)(F)F)cc3)cc2N)C1 [Compound 207, 3-amino-N-[(3S)-1-methylpyrrolidin-3-yl]-5-{[4-(trifluoromethoxy)phenyl]sulfonyl}pyridine-2-carboxamide] | 78.0% | > 667 nM | 15.0% | > 10000 nM
16 | Nc1cc(S(=O)(=O)c2ccc(C(F)(F)F)cc2)cnc1C(=O)NC[C@@H](O)COCC(F)(F)F [Compound 248, 3-amino-N-[(2R)-2-hydroxy-3-(2,2,2-trifluoroethoxy)propyl]-5-{[4-(trifluoromethyl)phenyl]sulfonyl}pyridine-2-carboxamide] | 105.0% | 12 nM | 91.1% | 385 nM
17 | C[C@H](O)CNC(=O)c1nc(OCCN(C)C)c(S(=O)(=O)c2ccc(OC(F)(F)F)cc2)cc1N [Compound 289, 3-amino-6-[2-(dimethylamino)ethoxy]-N-[(2S)-2-hydroxypropyl]-5-{[4-(trifluoromethoxy)phenyl]sulfonyl}pyridine-2-carboxamide] | 97.1% | 245 nM | 31.0% | 
18 | Nc1cc(S(=O)(=O)c2ccc(OC(F)(F)F)cc2)cnc1C(=O)NCC1COCCO1 (stereo not drawn) [Compound 8, 3-amino-N-(1,4-dioxan-2-ylmethyl)-5-{[4-(trifluoromethoxy)phenyl]sulfonyl}pyridine-2-carboxamide] | 109.5% | 72.1 nM | 67.5% | 1200 nM
19 | CCC(CO)NC(=O)c1ncc(S(=O)(=O)c2ccc(OC(F)(F)F)cc2)cc1N (stereo not drawn) [Compound 12, 3-amino-N-(1-hydroxybutan-2-yl)-5-{[4-(trifluoromethoxy)phenyl]sulfonyl}pyridine-2-carboxamide] | 114.5% | 36.1 nM | 43.8% | 692 nM
20 | C[C@H](O)CNC(=O)c1ncc(S(=O)(=O)N(C)Cc2ccc(F)cc2)cc1N [Compound 269, 3-amino-5-[(4-fluorobenzyl)(methyl)sulfamoyl]-N-[(2S)-2-hydroxypropyl]pyridine-2-carboxamide] | 107.0% | 7.8 nM | 44.8% | 1310 nM
21 | CCS(=O)(=O)c1cc(N)c(C(=O)NC[C@H](C)O)nc1-c1ccc(F)cc1 [Compound 263, 3-amino-5-(ethylsulfonyl)-6-(4-fluorophenyl)-N-[(2S)-2-hydroxypropyl]pyridine-2-carboxamide] | 97.2% | 142 nM | 5.99% | 2000 nM
22 | CC1(CCNC(=O)c2ncc(S(=O)(=O)c3ccc(OC(F)(F)F)cc3)cc2N)CC1 [Compound 124, 3-amino-N-[2-(1-methylcyclopropyl)ethyl]-5-{[4-(trifluoromethoxy)phenyl]sulfonyl}pyridine-2-carboxamide] | 104.0% | 100 nM | 57.0% | 824 nM
23 | C[C@H]1CCCN1S(=O)(=O)c1cnc(C(=O)NCc2nccc(=O)[nH]2)c(N)c1 [Compound 282, 3-amino-5-{[(2S)-2-methylpyrrolidin-1-yl]sulfonyl}-N-[(6-oxo-1,6-dihydropyrimidin-2-yl)methyl]pyridine-2-carboxamide] | 47.0% | > 667 nM | 1.8% | > 10000 nM
24 | Nc1cc(S(=O)(=O)c2ccc(OC(F)(F)F)cc2)cnc1C(=O)NCCC1CC1 [Compound 152, 3-amino-N-(2-cyclopropylethyl)-5-{[4-(trifluoromethoxy)phenyl]sulfonyl}pyridine-2-carboxamide] | 93.3% | 119 nM | 60.2% | 1130 nM
25 | Nc1cc(S(=O)(=O)c2ccc(C(F)(F)F)cc2)cnc1C(=O)NCC(O)COCC(F)(F)F (stereo not drawn) [Compound 201, 3-amino-N-[2-hydroxy-3-(2,2,2-trifluoroethoxy)propyl]-5-{[4-(trifluoromethyl)phenyl]sulfonyl}pyridine-2-carboxamide] | 104.0% | 14.7 nM | 59.8% | 523 nM
